Results from ChEMBL document CHEMBL1140941 (J Med Chem, 2009).
Calls of active or inactive are those of the source. No cut-off for these calls is given here.

Key:
[1] = molecular target: Estrogen receptor beta (Homo sapiens) (UniProt Q92731); test: Agonist activity at gal-ERbeta expressed in african green monkey CV1 cells co-expressing MH100 up to 10 uM by luciferase reporter gene assay relative to control; type: functional, cell-based; conditions: CV-1
[2] = molecular target: T1, Mineralocorticoid receptor (Homo sapiens) (UniProt P08235); test: Agonist activity at gal-MR expressed in african green monkey CV1 cells co-expressing MH100 up to 10 uM by luciferase reporter gene assay relative to control; type: functional, cell-based; conditions: CV-1
T1 sequence (whole entry): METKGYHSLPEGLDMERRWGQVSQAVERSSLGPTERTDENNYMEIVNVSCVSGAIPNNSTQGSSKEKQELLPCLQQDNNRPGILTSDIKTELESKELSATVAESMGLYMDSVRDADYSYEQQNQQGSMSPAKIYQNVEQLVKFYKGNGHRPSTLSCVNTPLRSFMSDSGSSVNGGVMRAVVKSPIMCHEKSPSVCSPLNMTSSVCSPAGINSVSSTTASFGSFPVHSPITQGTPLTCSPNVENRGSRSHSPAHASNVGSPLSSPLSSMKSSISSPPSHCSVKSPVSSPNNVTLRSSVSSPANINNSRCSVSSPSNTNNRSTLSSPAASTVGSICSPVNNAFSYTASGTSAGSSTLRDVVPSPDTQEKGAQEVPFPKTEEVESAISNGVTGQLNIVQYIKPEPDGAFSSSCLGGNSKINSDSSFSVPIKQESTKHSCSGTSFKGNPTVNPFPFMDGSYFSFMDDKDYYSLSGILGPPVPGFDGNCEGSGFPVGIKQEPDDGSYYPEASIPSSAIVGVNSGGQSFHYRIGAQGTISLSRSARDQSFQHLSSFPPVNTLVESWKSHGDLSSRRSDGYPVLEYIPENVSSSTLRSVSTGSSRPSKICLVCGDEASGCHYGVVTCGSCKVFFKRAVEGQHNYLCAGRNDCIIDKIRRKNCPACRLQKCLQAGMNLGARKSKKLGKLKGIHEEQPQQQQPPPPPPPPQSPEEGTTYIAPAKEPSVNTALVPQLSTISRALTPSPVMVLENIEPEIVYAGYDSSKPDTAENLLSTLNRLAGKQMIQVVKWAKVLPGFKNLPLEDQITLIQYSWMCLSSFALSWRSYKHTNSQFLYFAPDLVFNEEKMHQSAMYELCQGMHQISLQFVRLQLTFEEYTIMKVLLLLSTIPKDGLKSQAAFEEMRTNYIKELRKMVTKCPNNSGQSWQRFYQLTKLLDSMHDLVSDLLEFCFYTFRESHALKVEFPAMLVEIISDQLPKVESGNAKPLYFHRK

[3] = molecular target: Estrogen receptor beta (Homo sapiens) (UniProt Q92731); test: Antagonist activity at gal-ERbeta expressed in african green monkey CV1 cells co-expressing MH100 by luciferase reporter gene assay; type: functional, cell-based; conditions: CV-1
[4] = molecular target: T2, Estrogen receptor (Homo sapiens) (UniProt P03372); test: Antagonist activity at gal-ERalpha expressed in african green monkey CV1 cells co-expressing MH100 at 10 uM by luciferase reporter gene assay; type: functional, cell-based; conditions: CV-1
T2 sequence (whole entry): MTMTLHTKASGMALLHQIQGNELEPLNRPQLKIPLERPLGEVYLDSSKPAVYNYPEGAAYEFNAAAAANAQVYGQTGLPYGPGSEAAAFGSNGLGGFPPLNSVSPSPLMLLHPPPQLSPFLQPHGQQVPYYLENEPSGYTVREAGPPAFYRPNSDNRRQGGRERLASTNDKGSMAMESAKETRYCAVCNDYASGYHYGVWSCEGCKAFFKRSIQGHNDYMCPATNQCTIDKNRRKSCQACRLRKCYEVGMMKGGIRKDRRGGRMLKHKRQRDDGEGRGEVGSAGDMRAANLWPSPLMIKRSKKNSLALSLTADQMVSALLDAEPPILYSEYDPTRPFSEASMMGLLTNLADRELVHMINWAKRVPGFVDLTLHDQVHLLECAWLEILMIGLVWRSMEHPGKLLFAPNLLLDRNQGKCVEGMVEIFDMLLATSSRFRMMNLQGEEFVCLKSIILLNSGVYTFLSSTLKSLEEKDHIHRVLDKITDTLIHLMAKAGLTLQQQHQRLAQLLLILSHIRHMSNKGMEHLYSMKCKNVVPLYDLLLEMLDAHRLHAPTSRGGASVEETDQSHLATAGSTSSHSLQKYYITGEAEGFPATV

[5] = molecular target: T3, Androgen receptor (Homo sapiens) (UniProt P10275); test: Antagonist activity at gal-AR expressed in african green monkey CV1 cells co-expressing MH100 with GRIP1 co-factor at 10 uM by luciferase reporter gene assay; type: functional, cell-based; conditions: CV-1
T3 sequence (whole entry): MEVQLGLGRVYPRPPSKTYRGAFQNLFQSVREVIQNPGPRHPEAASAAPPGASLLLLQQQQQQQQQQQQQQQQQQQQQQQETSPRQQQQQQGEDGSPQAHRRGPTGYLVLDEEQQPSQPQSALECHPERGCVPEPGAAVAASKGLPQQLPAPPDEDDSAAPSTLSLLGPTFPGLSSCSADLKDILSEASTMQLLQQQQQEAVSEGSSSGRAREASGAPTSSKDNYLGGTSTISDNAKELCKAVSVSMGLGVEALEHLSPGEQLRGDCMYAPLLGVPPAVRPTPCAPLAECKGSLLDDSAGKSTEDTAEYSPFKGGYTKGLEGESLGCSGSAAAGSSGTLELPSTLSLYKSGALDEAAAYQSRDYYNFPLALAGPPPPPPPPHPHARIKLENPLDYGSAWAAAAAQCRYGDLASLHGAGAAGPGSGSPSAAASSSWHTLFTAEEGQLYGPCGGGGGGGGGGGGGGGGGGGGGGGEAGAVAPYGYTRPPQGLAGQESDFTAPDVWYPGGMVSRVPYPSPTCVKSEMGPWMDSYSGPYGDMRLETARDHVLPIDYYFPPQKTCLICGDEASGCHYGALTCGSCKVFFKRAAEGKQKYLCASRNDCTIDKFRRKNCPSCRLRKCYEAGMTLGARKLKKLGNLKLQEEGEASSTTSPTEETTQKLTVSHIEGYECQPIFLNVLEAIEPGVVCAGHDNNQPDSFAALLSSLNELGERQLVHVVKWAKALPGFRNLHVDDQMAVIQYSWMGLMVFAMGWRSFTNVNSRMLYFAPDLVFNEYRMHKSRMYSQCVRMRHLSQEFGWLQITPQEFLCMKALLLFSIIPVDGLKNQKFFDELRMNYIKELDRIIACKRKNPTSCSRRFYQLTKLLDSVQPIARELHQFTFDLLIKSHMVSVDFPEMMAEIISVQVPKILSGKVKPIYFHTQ

Mus musculus [6] = test: Inhibition of preatherosclerotic lesion in LDLR knockout mouse model at 3 mg/kg, po administered for 6 weeks by en-face analysis; type: functional; set-up: scale not given: the % may be the effect or the level left
Mus musculus [7] = test: Inhibition of preatherosclerotic lesion in LDLR knockout mouse model at 1 mg/kg, po administered for 6 weeks by en-face analysis; type: functional; set-up: scale not given: the % may be the effect or the level left

Chain of Estrogen receptor beta (Homo sapiens) (Q92731 whole entry): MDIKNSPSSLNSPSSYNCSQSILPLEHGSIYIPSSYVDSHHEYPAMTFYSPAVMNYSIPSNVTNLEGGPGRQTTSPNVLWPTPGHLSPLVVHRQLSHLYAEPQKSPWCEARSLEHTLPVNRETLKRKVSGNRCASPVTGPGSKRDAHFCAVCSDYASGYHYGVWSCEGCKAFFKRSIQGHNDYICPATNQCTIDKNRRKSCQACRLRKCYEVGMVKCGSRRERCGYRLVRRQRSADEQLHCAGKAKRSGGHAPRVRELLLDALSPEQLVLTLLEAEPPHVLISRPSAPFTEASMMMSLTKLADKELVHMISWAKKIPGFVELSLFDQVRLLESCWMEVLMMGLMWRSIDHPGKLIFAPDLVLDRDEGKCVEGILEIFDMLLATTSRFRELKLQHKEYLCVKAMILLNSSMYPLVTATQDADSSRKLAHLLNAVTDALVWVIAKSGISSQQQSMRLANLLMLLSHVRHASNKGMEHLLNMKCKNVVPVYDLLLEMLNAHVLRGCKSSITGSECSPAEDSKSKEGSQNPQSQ

- Activity [1]: inactive
- Activity [2]: inactive
- Activity [3]: inactive
- inhibition [4]: 24%
- inhibition [5]: 26%
Structure (SMILES): CC(C)OC(=O)C1=CN(C(=O)c2ccc(F)c(F)c2)CC(C)(C)c2c1[nH]c1ccccc21 [TUROFEXORATE ISOPROPYL]
- Activity (Mus musculus [6]): 36%
- Activity (Mus musculus [7]): 18%
